These molecules were tested on IL-12p70 (the complex of IL-12p35 and p40) (assay: IL-12p70 production inhibition in macrophages derived from mouse abdomen (IFN-γ/SAC stimulation, ELISA)). Settings: Macrophage; mouse (Balb/c) abdominal macrophages, 100 ng/mL mouse IFN-γ + 0.05% SAC, overnight; TFA salts tested where prepared as such; read-out: IL-12p70-Inhibitory Activity IC50.
Format: cell-based
Procedure: One milliliter each of a 3% (w/v) thioglycolate solution was intraperitoneally administered to mice (female Balb/c mice), the abdominal cells of each mouse were recovered after 5 or 6 days from the administration of the thioglycolate solution and the adhesive cells were collected and used in the exaluation procedures. To a culture medium containing such adhesive cells, there were added 100 ng/mL of mouse interferon-γ and a 0.05% (v/v) liquid containing killed cells derived from Staphylococcus aureus Cowan I strain (SAC) and a candidate compound and then the mixture was cultivated overnight. After the completion of the cultivation, the survival ratios were determined, there were quantitatively determined the quantities of IL-12p70 (the complex of IL-12p35 and p40) and IL-12p40 or TNF-α according to the ELISA assays while making use of the recovered supernatant of the culture medium and the 50% production-inhibitory concentration (IC50) was calculated for each case (see Table 1 and Tables 1-9 for IL-12p70 and TNF-α and Tables 1 to 10 for IL-12p40).

Structure (SMILES)	IC50 [µM]
COc1ccc(/C=N/Nc2cc(N3CCOCC3)n3nc(-c4ccccc4)cc3n2)cc1 [Compound 30, N-(4-methoxy-benzylidene)-N′-(7-morpholin-4-yl-2-phenyl-pyrazolo[1,5-a]pyrimidin-5-yl)-hydrazine]	0.18
C(=N\Nc1cc(N2CCOCC2)n2nc(-c3ccncn3)cc2n1)/c1c[nH]c2ccccc12 [Compound 120, N-(1H-indol-3-yl-methylidene)-N-(7-morpholin-4-yl-2-pyrimidin-4-yl-pyrazolo[1,5-a]pyrimidin-5-yl)-hydrazine]	0.04
Cc1ccc(-c2cc3nc(N/N=C/c4c[nH]c5ccccc45)cc(N4CCOCC4)n3n2)cn1 [Compound 112, N-(1H-indol-3-yl-methylidene)-N′-[2-(6-methyl-pyridin-3-yl)-7-morpholin-4-yl-pyrazolo[1,5-a]pyrimidin-5-yl]-hydrazine]	0.0075
Cc1ccccc1/C=N/Nc1cc(N2CCOCC2)n2nc(-c3ccccc3)cc2n1 [Compound 57, N-(2-methyl-benzylidene)-N′-(7-morpholin-4-yl-2-phenyl-pyrazolo[1,5-a]pyrimidin-5-yl)-hydrazine]	0.42
Cc1[nH]c2ccccc2c1/C=N/Nc1cc(N2CCOCC2)n2nc(-c3ccccc3)cc2n1 [Compound 78, N-(2-methyl-1H-indol-3-yl-methylidene)-N′-(7-morpholin-4-yl-2-phenyl-pyrazolo[1,5-a]pyrimidin-5-yl)-hydrazine]	0.44
C(=N\Nc1cc(N2CCOCC2)n2nc(N3CCCCC3)cc2n1)/c1c[nH]c2ccccc12 [Compound 101, N-(1H-indol-3-yl-methylidene)-N-(7-morpholin-4-yl-2-piperidin-1-yl-pyrazolo[1,5-a]pyrimidin-5-yl)-hydrazine]	0.38
Cc1nc2sccn2c1/C=N/Nc1cc(N2CCOCC2)n2nc(-c3ccccc3)cc2n1 [Compound 75, N-(6-methy-imidazo[2,1-b]thiazole-5-methylidene)-N′-(7-morpholin-4-yl-2-phenyl-pyrazolo[1,5-a]pyrimidin-5-yl)-hydrazine]	0.29

The remaining lines, values ahead:

IC50 [µM]	Structure (SMILES)
0.036	C(=N\Nc1cc(N2CCOCC2)n2nc(-c3ccncc3)cc2n1)/c1ccc2occc2c1 [Compound 125, N-benzofuran-5-yl-methylidene-N′-(7-morpholin-4-yl-2-pyridin-4-yl-pyrazolo[1,5-a]pyrimidin-5-yl)-hydrazine]
0.14	Fc1cccc(/C=N/Nc2cc(N3CCOCC3)n3nc(-c4ccncc4)cc3n2)c1 [Compound 130, N-(3-fluoro-benzylidene)-N′-(7-morpholin-4-yl-2-pyridin-4-yl-pyrazolo[1,5-a]pyrimidin-5-yl)-hydrazine]
0.13	Cc1cccc(/C=N/Nc2cc(N3CCOCC3)n3nc(C(=O)N(C)c4ccncc4)cc3n2)c1 [Compound 135, 5-[N-(3-methyl-benzylidene)-hydrazino]-7-morpholin-4-yl-pyrazolo[1,5-a]pyrimidine-2-carboxylic acid methyl-pyridin-4-yl-amide]
0.16	Cc1cccc(/C=N/Nc2cc(N3CCOCC3)n3nc(N4CCOCC4)cc3n2)c1 [Compound 127, N-(3-methyl-benzylidene)-N-(2,7-dimorpholin-4-yl-pyrazolo[1,5-a]-pyrimidin-5-yl)-hydrazine]
0.017	Cc1cccc(/C=N/Nc2cc(N3CCOCC3)n3nc(-c4ccco4)cc3n2)c1 [Compound 33, N-(2-furan-2-yl-7-morpholin-4-yl-pyrazolo[1,5-a]-pyrimidin-5-yl)-N′-(3-methyl-benzylidene)-hydrazine]
0.044	COc1ccc(/C=N/Nc2cc(N3CCOCC3)n3nc(-c4ccncc4)cc3n2)cc1C [Compound 92, N-(4-methoxy-3-methyl-benzylidene)-N′-(7-morpholin-4-yl-2-pyridin-4-yl-pyrazolo[1,5-a]pyrimidin-5-yl)-hydrazine]
0.1	Cc1cccc(/C=N/Nc2cc(N3CCOCC3)n3nc(C4CCN(C(=O)OCc5ccccc5)CC4)cc3n2)c1 [Compound 131, N-[2-(1-benzyloxy-carbonyl-piperidin-4-yl)-7-morpholin-4-yl-pyrazolo[1,5-a]pyrimidin-5-yl]-N′-(3-methyl-benzylidene)-hydrazine]

From US8314098B2, “Pyrazolo-pyrimidine compounds” (Ajinomoto Co., Inc., priority 2008, dated 2012)
